Measurements reported in paper PMC11079024, “Identification of a family of species-selective complex I inhibitors as potential anthelmintics” (Nature Communications, 2024).
Values joined by “and” are separate entries in the source; they are usually repeats but may differ in a detail not shown here. Equal entries are not always repeated. Where two headings read alike, the source gives them in different places.

Assays:
[1] = molecular target: C. elegans (N2) complex I (NADH:ubiquinone oxidoreductase) (Caenorhabditis elegans, UniProt P24887+Q93873+Q94360); assay: biochemical; type: biochemical
Description: (§1) Mitochondria were isolated from the following free-living nematode strains: C. elegans—N2, CB3474, ECA882, ECA917, ECA1075, ECA1080; C. briggsae—AF16; P. pacificus—PS312; and P. hermaphrodita—B178. With the exception of the P. hermaphrodita strain B178, adult worms of each strain were grown in bulk through liquid culture to obtain mitochondria in sufficient quantities. Due to poor growth in liquid media, mixed stage populations of P. hermaphrodita were washed off and collected from NGM plates seeded with OP50. The isolation of mitochondria from all free-living nematode strains followed the protocol previously outlined in Burns et al.[24]. In brief, a 1 L saturated culture of E. coli HB101 was concentrated 20-fold in 50 mL complete S-medium. ~500,000 L1 worms synchronized from an embryo preparation performed the day prior were added to the S-media/HB101 suspension and grown to adulthood over the course of 3.5 days at 20 °C with shaking at 165 rpm. Following growth, worms were collected in 10 ×15 mL conical tubes and washed 7 times in M9 buffer. Worm suspensions were then combined into a single 15 mL conical tube and diluted to a final volume of 15 mL with M9 buffer. 1 mL aliquots of worm suspension were then distributed to 15 × 1.5 mL screw-cap microcentrifuge tubes and were pelleted at 500 g for 1 min. Excess M9 was aspirated without disturbing the worm pellet. 600 μL ice-cold isolate buffer A (250 mM sucrose, 10 mM Tris (pH 7.5), 1 mM EDTA, 1 mM PMSF (freshly prepared)) and 300 μL cold glass beads were then added to each tube. Tubes were incubated on ice for 10 min, and the worms were then lysed by bead beating (6 x 30 s, with 1 min cooling intervals). Tubes containing worm lysate were centrifuged at 1,000 g for 10 min at 4 °C and the supernatant was transferred to 15 new microcentrifuge tubes on ice. The tubes were centrifuged a second time at 1,000 g for 10 min at 4 °C and the supernatant was once again transferred to 15 new microcentrifuge tubes on ice. These tubes were then centrifuged at 16,000 g for 10 min at 4 °C. The resulting mitochondrial pellet was washed twice by re-suspension in 300 μL of ice-cold isolate buffer B (250 mM sucrose, 10 mM Tris (pH 7.5), 1 mM EDTA). Following the final wash, isolation buffer was aspirated from each tube and the pellets were flash-frozen in ethanol/dry ice and stored at −80 °C until needed.
(§2) The enzymatic activities of individual ETC complexes (I-IV) were assessed spectrophotometrically in isolated mitochondria using a Varioskan LUX Multimode plate reader (ThermoFisher Scientific). Mitochondrial pellets previously isolated were thawed on ice and resuspended in ice-cold isolation buffer (250 mM sucrose, 10 mM Tris (pH 7.5), 1 mM EDTA). The BCA assay (Walker, 1994) was used to quantify the protein concentration of mitochondria suspensions; solutions were diluted to a concentration of 0.2 mg/mL for use in all assays. For the complex I assay, mitochondria pellets were freeze-thawed on ice three times to increase enzyme accessibility. […] 20 μL mitochondria suspension was then added/mixed with a pipette to initiate the reaction. Immediately following the addition of mitochondria, absorbance was measured (complex I and II: 600 nm; complex III and IV: 550 nm) in 30 s intervals over 15 min. Enzymatic activity was determined in each reaction by plotting absorbance versus time and calculating the slope of the curve during the initial linear phase of the reaction. […] Percent activity of each complex was calculated by dividing the enzyme-specific activity of each well by the enzyme-specific activity of the corresponding solvent controls.
Chemical solutions were prepared in complex I assay buffer composed of 25 mM KPi buffer (pH 7.5), 3 mg/mL bovine serum albumin (BSA), 80 μM NADH, 60 μM decylubiquinone, 160 μM DCIP, 2 μM antimycin A and 2 mM KCN.
For preliminary screens of hit compounds, compounds were screened at 100 μM; data are the average of at least three biological replicates.

[2] = molecular target: C. elegans complex II (succinate dehydrogenase) (Caenorhabditis elegans, UniProt O62215+P41956+Q09545); assay: In vitro complex II activity assay, C. elegans mitochondria; type: biochemical; conditions: for Absorbance DCIP [600nm], complex II: single replicate
Description: as §1, §2
Complex II (succinate dehydrogenase) activity was assessed using the DCIP-coupled method previously described in Burns et al.[24].
For preliminary screens of hit compounds, compounds were screened at 100 μM; data are the average of at least three biological replicates. The complex I and II activity assays were used for additional dose-response experiments.

[3] = tested on: C. elegans complex III (decylubiquinol-cytochrome C reductase); assay: In vitro complex III activity assay, C. elegans mitochondria; type: biochemical, Caenorhabditis elegans; conditions: for CIII Activity: 100 μM inhibitor, in vitro activity relative to solvent control, N2 C. elegans mitochondria
Description: as §1, §2
Antimycin A-sensitive complex III (decylubiquinol-cytochrome C […]) activity was determined by measuring the reduction of cytochrome C (CytC) as optimized in Luo et al.[59]. Decylubiquinol for complex III assays was prepared fresh as described in Janssen and Boyle, 2019[60].

[4] = tested on: C. elegans complex IV (cytochrome C oxidase); assay: In vitro complex IV activity assay, C. elegans mitochondria; type: biochemical, Caenorhabditis elegans; conditions: for CIV Activity: 100 μM inhibitor, in vitro activity relative to solvent control, N2 C. elegans mitochondria
Description: as §1, §2
Complex IV (cytochrome C oxidase) activity was determined by following the oxidation of CytC in the protocol outlined by Janssen and Boyle, 2019[60]. Reduced CytC was prepared fresh by adding 1 μL increments of 1 M dithiothreitol to a 1 mM solution of CytC and vortexing. A colour change from brown to orange/pink signals when CytC has been reduced.

[5] = tested on: L1 wild-type C. elegans; conditions: for Relative Motility: worm motility 3 hours after removal of KCN, relative to DMSO controls, single biological replicate
[6] = 100 μM of NPD compound, C. elegans mitochondria, individual biological replicates, 100 µM
[7] = 100 µM compound, relative to solvent control, mean (SEM)
[8] = 100 μM of NPD compound, C. elegans mitochondria, individual biological replicates
[9] = 100 μM of NPD compound, C. elegans mitochondria, mean of four biological replicates
[10] = 50 μM, hit = relative motility below 0.25 3 hours after removal of KCN

Sequence of C. elegans complex II (succinate dehydrogenase) (P41956 30-182): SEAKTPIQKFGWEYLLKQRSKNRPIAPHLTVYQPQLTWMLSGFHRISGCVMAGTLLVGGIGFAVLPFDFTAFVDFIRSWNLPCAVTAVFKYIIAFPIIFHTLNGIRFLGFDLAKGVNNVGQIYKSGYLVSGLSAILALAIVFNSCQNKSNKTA
Sequence of C. elegans complex II (succinate dehydrogenase) (Q09545 22-298): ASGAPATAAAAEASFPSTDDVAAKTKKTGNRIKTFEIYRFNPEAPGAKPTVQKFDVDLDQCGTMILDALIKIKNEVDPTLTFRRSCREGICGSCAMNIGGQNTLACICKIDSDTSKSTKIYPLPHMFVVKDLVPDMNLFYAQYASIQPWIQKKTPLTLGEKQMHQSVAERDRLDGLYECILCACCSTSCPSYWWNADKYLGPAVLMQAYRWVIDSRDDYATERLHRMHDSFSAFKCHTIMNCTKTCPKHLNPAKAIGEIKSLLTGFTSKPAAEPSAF
Sequence of C. elegans complex II (succinate dehydrogenase) (Q09508 32-646, further chain): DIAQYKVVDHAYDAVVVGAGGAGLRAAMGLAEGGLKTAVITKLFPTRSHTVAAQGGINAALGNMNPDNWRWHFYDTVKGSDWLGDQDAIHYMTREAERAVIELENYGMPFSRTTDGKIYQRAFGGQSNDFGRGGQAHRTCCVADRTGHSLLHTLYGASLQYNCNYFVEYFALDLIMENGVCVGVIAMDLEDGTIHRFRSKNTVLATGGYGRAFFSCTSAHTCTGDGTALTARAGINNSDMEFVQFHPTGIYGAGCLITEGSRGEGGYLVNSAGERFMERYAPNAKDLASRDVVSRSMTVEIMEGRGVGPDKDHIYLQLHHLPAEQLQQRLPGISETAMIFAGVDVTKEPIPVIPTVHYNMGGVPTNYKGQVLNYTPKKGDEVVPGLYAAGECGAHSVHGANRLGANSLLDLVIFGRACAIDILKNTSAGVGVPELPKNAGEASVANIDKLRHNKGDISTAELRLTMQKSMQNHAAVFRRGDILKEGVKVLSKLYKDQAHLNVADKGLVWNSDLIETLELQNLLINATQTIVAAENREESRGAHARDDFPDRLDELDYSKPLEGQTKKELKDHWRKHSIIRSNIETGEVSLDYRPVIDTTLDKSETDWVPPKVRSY
Sequence of C. elegans complex II (succinate dehydrogenase) (O62215 31-145): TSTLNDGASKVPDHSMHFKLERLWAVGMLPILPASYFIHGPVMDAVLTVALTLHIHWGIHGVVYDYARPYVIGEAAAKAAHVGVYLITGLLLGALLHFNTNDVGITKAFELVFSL
Sequence of C. elegans (N2) complex I (NADH:ubiquinone oxidoreductase) (Q94360 17-199): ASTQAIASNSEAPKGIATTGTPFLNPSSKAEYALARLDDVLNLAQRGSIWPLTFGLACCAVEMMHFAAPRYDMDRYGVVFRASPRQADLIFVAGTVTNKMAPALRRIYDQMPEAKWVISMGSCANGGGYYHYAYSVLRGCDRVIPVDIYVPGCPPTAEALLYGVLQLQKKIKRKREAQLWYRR
Sequence of C. elegans (N2) complex I (NADH:ubiquinone oxidoreductase) (P24887 whole entry): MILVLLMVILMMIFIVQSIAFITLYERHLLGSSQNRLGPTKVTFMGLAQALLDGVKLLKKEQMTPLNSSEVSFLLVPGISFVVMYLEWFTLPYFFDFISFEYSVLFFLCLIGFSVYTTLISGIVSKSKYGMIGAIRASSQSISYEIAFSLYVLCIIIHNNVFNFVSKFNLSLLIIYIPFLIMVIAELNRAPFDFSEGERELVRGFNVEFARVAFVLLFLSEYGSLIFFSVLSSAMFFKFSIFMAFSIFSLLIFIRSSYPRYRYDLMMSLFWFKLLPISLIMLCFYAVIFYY
Sequence of C. elegans (N2) complex I (NADH:ubiquinone oxidoreductase) (Q93873 31-482): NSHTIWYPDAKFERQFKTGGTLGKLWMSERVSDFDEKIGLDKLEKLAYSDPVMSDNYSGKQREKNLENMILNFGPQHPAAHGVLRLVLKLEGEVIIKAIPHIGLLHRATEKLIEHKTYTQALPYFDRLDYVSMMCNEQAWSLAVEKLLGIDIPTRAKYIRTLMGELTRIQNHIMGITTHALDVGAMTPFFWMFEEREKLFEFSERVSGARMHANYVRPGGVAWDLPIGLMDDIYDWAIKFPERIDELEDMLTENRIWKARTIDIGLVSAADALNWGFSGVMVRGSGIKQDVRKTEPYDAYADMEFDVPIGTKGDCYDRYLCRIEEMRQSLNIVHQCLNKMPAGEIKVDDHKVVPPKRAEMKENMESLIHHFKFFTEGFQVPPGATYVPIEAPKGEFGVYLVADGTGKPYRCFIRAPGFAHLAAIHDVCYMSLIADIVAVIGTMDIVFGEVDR

## CCCCCC[C@H]1C(=O)O[C@H](C)[C@H](NC(=O)c2cccc(NC=O)c2O)C(=O)O[C@@H](C)[C@@H]1OC(=O)CC(C)C [Antimycin A, reference compound]
[1]; 100 µM compound, relative to solvent control, mean (SEM), read-out: % Activity Complex I
  activity at 100 µM: 117%
[1]; 100 μM inhibitor, in vitro activity relative to solvent control, N2 C. elegans mitochondria, Mean, read-out: CI Activity
  activity at 100 µM: 117%
[1]; 100 μM inhibitor, in vitro activity relative to solvent control, N2 C. elegans mitochondria, single replicate, read-out: CI Activity
  activity at 100 µM: 119%
[1]; [6]
  Percent in vitro activity, Complex I (single replicate Rep1-Rep4): 116.806% and 115.361% and 116.592%
[1]; 100 μM of NPD compound, C. elegans mitochondria, individual biological replicates, read-out: Percent in vitro activity, Complex I (single replicate Rep1-Rep4)
  activity at 100 µM: 119%
[1]; 100 μM of NPD compound, C. elegans mitochondria, mean of four biological replicates, read-out: Percent in vitro activity, Complex I (Mean)
  activity at 100 µM: 117%
[2]; 100 µM compound, relative to solvent control, mean (SEM), read-out: % Activity Complex II
  activity at 100 µM: 79.5%
[2]; 100 μM inhibitor, in vitro activity relative to solvent control, N2 C. elegans mitochondria, Mean, read-out: CII Activity
  activity at 100 µM: 79.5%
[2]; [6]
  Percent in vitro activity, Complex II (single replicate Rep1-Rep4): 114.678% and 73.200% and 61.398% and 68.876%
[2]; 100 μM of NPD compound, C. elegans mitochondria, mean of four biological replicates, read-out: Percent in vitro activity, Complex II (Mean)
  activity at 100 µM: 79.5%
[3]; [7]
  % Activity Complex III: 0.00 (0.0) %
[3]; Mean
  CIII Activity: 0.000%
[3]; single replicate
  CIII Activity: 0.000%
[3]; [8]
  Percent in vitro activity, Complex III (single replicate Rep1-Rep4): 0.000%
[3]; [9]
  Percent in vitro activity, Complex III (Mean): 0.000%
[4]; [7]
  % Activity Complex IV: 94.00 (1.10) %
[4]; Mean
  CIV Activity: 94.002%
[4]; single replicate
  CIV Activity: 97.456% and 95.348% and 87.857% and 95.349%
[4]; [8]
  Percent in vitro activity, Complex IV (single replicate Rep1-Rep4): 97.456% and 95.348% and 87.857% and 95.349%
[4]; [9]
  Percent in vitro activity, Complex IV (Mean): 94.002%

## CCOc1ccc(CNc2nc3ccccc3n2CCN(CC)CC)cc1 [Compound 7768813]
[5]; [10]
  Screen "Hit": Y (hits were identified as compounds that reduced relative motility below 0.25 (75% reduction))
[5]; 50 μM
  Relative Motility: 0.210

## c1ccc(Cn2c(-c3cncs3)nc3ccccc32)cc1 [Compound 7815425]
[5]; active (hit) or inactive (non) at 50 μM in C. elegans assay of RQ-dependent metabolism
  Hit: non

## Brc1cc2nc[nH]c2c2ccccc12 [Compound 7873254]
[5]; 50 μM, hit = relative motility below 0.25 3 hours after the removal of KCN
  Screen "Hit": Y (hits were identified as compounds that reduced relative motility below 0.25 (75% reduction))

## CCC(C)c1ccccc1OCCn1cnc2ccccc21 (stereo not shown) [Compound 7925137]
[5]; [10]
  Screen "Hit": Y (hits were identified as compounds that reduced relative motility below 0.25 (75% reduction))
[5]; 50 μM
  Relative Motility: 0.220

## c1ccc2c(c1)ncn2CCOc1ccc2c(c1)CCC2 [Compound 7925762]
[5]; 50 μM compound, hit = relative motility below 0.25 3 hours after removal of KCN
  Screen "Hit": Y (hits were identified as compounds that reduced relative motility below 0.25 (75% reduction))
[5]; 50 μM compound
  Relative Motility: 0.250

## O=C(O)CC(=O)O [Malonate]
[2]; 30 s
  Absorbance DCIP [600nm], complex II: 0.481 and 0.464 and 0.499
[2]; 60 s
  Absorbance DCIP [600nm], complex II: 0.480 and 0.464 and 0.499
[2]; 90 s
  Absorbance DCIP [600nm], complex II: 0.480 and 0.464 and 0.499
[2]; 120 s
  Absorbance DCIP [600nm], complex II: 0.480 and 0.464 and 0.499
[2]; 150 s
  Absorbance DCIP [600nm], complex II: 0.480 and 0.463 and 0.499
[2]; 180 s
  Absorbance DCIP [600nm], complex II: 0.480 and 0.463 and 0.499
[2]; 210 s
  Absorbance DCIP [600nm], complex II: 0.480 and 0.463 and 0.498
[2]; 240 s
  Absorbance DCIP [600nm], complex II: 0.480 and 0.463 and 0.498
[2]; 270 s
  Absorbance DCIP [600nm], complex II: 0.479 and 0.462 and 0.498 and 0.486
[2]; 300 s
  Absorbance DCIP [600nm], complex II: 0.479 and 0.461 and 0.498 and 0.486
[2]; 330 s
  Absorbance DCIP [600nm], complex II: 0.478 and 0.461 and 0.497 and 0.485
[2]; 360 s
  Absorbance DCIP [600nm], complex II: 0.477 and 0.460 and 0.496 and 0.484
[2]; 390 s
  Absorbance DCIP [600nm], complex II: 0.476 and 0.460 and 0.495 and 0.483
[2]; 420 s
  Absorbance DCIP [600nm], complex II: 0.476 and 0.459 and 0.494 and 0.482
[2]; 450 s
  Absorbance DCIP [600nm], complex II: 0.475 and 0.459 and 0.494 and 0.482
[2]; 480 s
  Absorbance DCIP [600nm], complex II: 0.475 and 0.458 and 0.494 and 0.481
[2]; 510 s
  Absorbance DCIP [600nm], complex II: 0.474 and 0.457 and 0.493 and 0.481
[2]; 540 s
  Absorbance DCIP [600nm], complex II: 0.473 and 0.457 and 0.492 and 0.480
[2]; 570 s
  Absorbance DCIP [600nm], complex II: 0.473 and 0.457 and 0.492
[2]; 600 s
  Absorbance DCIP [600nm], complex II: 0.472 and 0.457 and 0.491
[2]; 630 s
  Absorbance DCIP [600nm], complex II: 0.471 and 0.457 and 0.491
[2]; 660 s
  Absorbance DCIP [600nm], complex II: 0.470 and 0.456 and 0.490
[2]; 690 s
  Absorbance DCIP [600nm], complex II: 0.470 and 0.456 and 0.490
[2]; 720 s
  Absorbance DCIP [600nm], complex II: 0.470 and 0.455 and 0.489
[2]; 750 s
  Absorbance DCIP [600nm], complex II: 0.470 and 0.455 and 0.489
[2]; 780 s
  Absorbance DCIP [600nm], complex II: 0.469 and 0.454 and 0.489
[2]; 810 s
  Absorbance DCIP [600nm], complex II: 0.469 and 0.454 and 0.489
[2]; 840 s
  Absorbance DCIP [600nm], complex II: 0.470 and 0.453 and 0.490
[2]; 870 s
  Absorbance DCIP [600nm], complex II: 0.469 and 0.453 and 0.489
[2]; 900 s
  Absorbance DCIP [600nm], complex II: 0.468 and 0.453 and 0.489
